The text below walks through data of patent US6391908B1, “Oxime amide indole type sPLA2 inhibitors” (Eli Lilly and Company, priority 1998, dated 2002).

Structures are written as SMILES.

The assay concerns the target T1, recombinant human secreted phospholipase A2 (Homo sapiens, UniProt P14555).
T1 sequence (P14555 21-144): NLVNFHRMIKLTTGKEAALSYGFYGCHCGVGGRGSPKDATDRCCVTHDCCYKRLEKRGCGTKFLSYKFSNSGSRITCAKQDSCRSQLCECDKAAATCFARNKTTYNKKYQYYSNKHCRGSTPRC
The experiment in a line: chromogenic assay for inhibitors of recombinant human secreted phospholipase A2. It counts as biochemical. An excerpt:
The following chromogenic assay procedure was used to identify and evaluate inhibitors of recombinant human secreted phospholipase A2. The assay described herein has been adapted for high volume screening using 96 well microtiter plates. A general description of this assay method is found in the article, “Analysis of Human Synovial Fluid Phospholipase A2 on Short Chain Phosphatidylcholine-Mixed Micelles: Development of a Spectrophotometric Assay Suitable for a Microtiterplate Reader”, by Laure J. Reynolds, Lori L. Hughes, and Edward A Dennis, Analytical Biochemistry, 204, pp. 190-197, 1992 (the disclosure of which is incorporated herein by reference): […]
A measured volume of racemic dipheptanoyl thio PC supplied in chloroform at a concentration of 100 mg/ml is taken to dryness and redissolved in 10 millimolar TRITON X-100™ nonionic detergent aqueous solution. […]
5. Read absorbance of wells at 405 nanometers with an automatic plate reader.
All compounds were tested in triplicate. […] Compounds initially found to be active were reassayed to confirm their activity and, if sufficiently active, IC50 values were determined. […] In all cases, % inhibition measured at 405 nanometers generated by enzyme reactions containing inhibitors relative to the uninhibited control reactions was determined. […] IC50 were determined by plotting log concentration versus inhibition values in the range from 10-90% inhibition.

As for `CCc1c(/C(=N/O)C(N)=O)c2c(OCC(=O)O)cccc2n1Cc1ccccc1` [Example 1], the “activity in inhibiting sPLA2 (in words)” value is reported as “highly active”. For the same molecule, for the setting “diheptanoyl thio-PC substrate, pH 7.5, 40° C. for 30 minutes, absorbance at 405 nanometers, read-out: Inhibition of human secreted PLA2 IC50 ± mean deviation (3-4 tests)”, the IC50 is 49 nM.

A word on the IC50: it is the concentration that inhibits the measured activity by half.
